Measurements: patent US7314866B2, “Ku-70-derived Bax-suppressing peptides and use thereof for the protection of damaged cells” (Bloodcenter of Wisconsin, Inc., priority 2002, dated 2008)
“Also recorded” adds a separate entry of the source. Where a SMILES comes first, the peptide text is derived from it. Where no end group is shown, it is not given here. The star is where a group is joined. FITC = O=C1OC2(c3ccc(O)cc3Oc3cc(O)ccc32)c2ccc(NC(=S)*)cc21; Biotin = O=C1N[C@H]2[C@H](CS[C@H]2CCCCC(=O)*)N1; Cbz = O=C(OCc1ccccc1)*; CH2F = FC*

Tests used:
endogenous Bax = target: T1, endogenous Bax (Mus musculus, UniProt Q07813); assay: Scatchard analysis of the binding of FITC-V5 and Bax; details: Bax-immunodepleted cell lysates
T1 construct: endogenous in cells; host or cells: Ku70-deficient mouse embryonic fibroblasts, cytosol fraction
Method: (§1) FIG. 4A: One day following UVC-irradiation or STS-treatment in the absence (UV and STS) or presence of 200 uM negative control (NC) peptide (UV+NC and STS+NC) or V5 peptide (UV+V5 and STS+V5), subcellular fractionation of HeLa cells (10^6 cells) was performed. FoF1 ATP synthase subunit α (F1α) was used to mark the mitochondrial fraction. HM stands for “Heavy Membrane” fraction containing mitochondria. FIG. 4C: cytochrome c release from mitochondria is inhibited by BIP, but not z-VAD-fmk. HeLa cells (10^6 cells) were treated with 200 nM STS in the presence or absence of 200 uM negative control (NC) peptide, V5 peptide, or z-VAD-fmk for 24 hours. Cytochrome c released from mitochondria into cytosol was analyzed by subcellular fractionation followed by Western blot analysis of cytochrome c (cyt c) as well as mitochondrial FoF1-ATP-synthase subunit F1α (F1α) as described in Methods. […] Caspase activity was assessed as described in Methods. […]
Ku70-deficient MEFs (10^7 cells) were lysed in 200 ul of “detergent-free hypotonic buffer” (hypotonic (5 mM NaCl) phosphate buffered saline, pH 7.4) containing protease inhibitors (100 times dilution of Protease Inhibitors Cocktail; Sigma) according to the previously reported method (Hsu and Youle, supra, 1998). […] Kd was calculated by Scatchard plot. […]

HEK293T cells = assay: Bax-induced apoptosis in HEK293T cells (pcDNA3-Bax transfection, Hoechst staining); type: cell-based, human; details: added to the culture medium
Method: FIG. 1 illustrates that new peptides designed from Ku70 show anti-Bax activity. FIG. 1A: scheme of Ku70 full-length (Ku70 wt), Ku701-577 (Ku70Δ578–609), or Ku70578-609 (Ku70Δ1–577). FIG. 1C: HEK293T cells were transfected with 1.0 ug of pCMV-2B-control vector (Control) or pcDNA3-Bax (Bax) together with 2.0 ug of pCMV-2B-Ku70 wt (Ku70 wt), pCMV-2B-Ku701-577 (Ku701-577), or pCMV-2B-Ku70578-609 (Ku70578-609). All the cells were also co-transfected with 0.5 ug pEGFP for the marking of transfected cells. Apoptosis in the transfected cells was analyzed 24 hours following transfection with Hoechst dye staining of the nucleus as described in Methods. FIG. 1D: HEK293T cells were incubated with 200 uM peptide composed of Ku70578-587 or Ku70596-600 for 4 hours using BioPorter reagent, and then transfected with 1.0 ug of pCDNA3-control vector (Control) or pcDNA3-Bax (Bax). The number of apoptotic cells was determined as described in FIG. 1C. FIG. 1E: HEK293T cells (10^6 cells) were incubated with 200 uM IPMIK (negative control peptide) or VPMLK (V5) and PMLKE (P5) peptides at the indicated concentrations for 1 hour and then incubated cells were transfected with 1.0 ug of pcDNA3-Bax. Also, unincubated cells were transfected with 1.0 ug of pcDNA3-Bax in the presence or absence of 200 uM z-VAD-fmk. The number of apoptotic cells was determined as described in FIG. 1C. FIG. 1F: Summary of the anti-Bax activity and sequence of all peptides used.
HEK293T and HeLa cells were cultured in MEM supplemented with 10% fetal bovine serum (FBS) and Du145 cells and mouse embryonic fibroblasts (MEFs) were in DMEM with 10% FBS. Transfection of the plasmids was performed by SuperFect (Qiagen) according to the manufacturer's manual. Apoptosis was induced by pcDNA3-human Bax (Bax-encoding plasmid)-transfection, Staurosporin (STS)-treatment and UVC-irradiation. The amount of the plasmids, the concentration of STS, and the energy of UVC-irradiation are described in the figure legends. Apoptosis in the transfected cells was analyzed as follows: A plasmid encoding enhanced green fluorescent protein (EGFP) (0.5 ug to 10^6 cells) was transfected to all the groups to mark the transfected cells. After the treatment, cells were stained with Hoechst dye and cells with apoptotic nuclei were counted in GFP-expressing cells under the fluorescent microscope as described by Matsuyama, et al., J. Biol. Chem. 273:30995–31001, 1998. Each point in the figures showing percentages of apoptosis represents the mean +/−SE of three experiments. Caspase activities of cells were measured by detecting the cleavage of fluorogenic substrate of Caspase (DEVD-afc) as previously described.
BioPorter-based peptide delivery was performed 4 hours before apoptosis induction.

Caspase = Caspase activity (DEVD-afc cleavage); type: cell-based, human; details: HeLa cells, 200 nM STS, 200 uM, 24 hours
Method: as §1
HEK293T and HeLa cells were cultured in MEM supplemented with 10% fetal bovine serum (FBS) and Du145 cells and mouse embryonic fibroblasts (MEFs) were in DMEM with 10% FBS. […] Apoptosis in the transfected cells was analyzed as follows: A plasmid encoding enhanced green fluorescent protein (EGFP) (0.5 ug to 10^6 cells) was transfected to all the groups to mark the transfected cells. […]

Bax = assay: Co-precipitation of biotin-labeled peptides and endogenous Bax using streptavidin beads; type: binding, human; details: HEK293T lysates, CHAPS buffer
human Bax [1] = target: T2, human Bax (human, UniProt Q07812 1-192); assay: streptavidin bead pull-down from HEK293T CHAPS lysates, Western blot of Bax
T2 construct: Protein in cell lysates or cells, not purified; also called endogenous Bax; pcDNA3-Bax (human)
Method: Endogenous protein: HEK293T (10^7 cells) were lysed in 200 ul of "CHAPS-based buffer" (150 mM NaCl, 10 mM Hepes, pH 7.4, 1.0% CHAPS) containing protease inhibitors (100 times dilution of Protease Inhibitors Cocktail; Sigma) according to the previously reported method (Hsu and Youle, *J. Biol. Chem.* 273:10777–10783, 1998). After pre-cleaning of 600 ul of the sample with 50 ul of Protein G-Sepharose at 4° C. for 1 hour, immunoprecipitations were performed by incubating 200 ul of lysates with 20 ul of Protein G-Sepharose preabsorbed with 2 ug of anti-Bax polyclonal (BD-Pharmingen) or anti-Ku70 monoclonal antibody (BD-Pharmingen) at 4° C. for 2 hours. In some cases, 2 ug of anti-Bax monoclonal antibody (clone 6A7, BD Pharmingen) was used to detect active form of Bax. After extensive washing in the buffer, beads were boiled in 40 ul of Laemmli buffer and 20 ul of the eluted proteins were subjected to SDS-PAGE. *Co-precipitation of biotin-labeled peptides and endogenous Bax using streptavidin beads*: HEK293T cells (10^7 cells) lysed in 200 ul CHAPS-based buffer were incubated with biotin-labeled negative control (NC) peptide or VPMLK (V5; SEQ ID NO: 1) peptide for 1 hour. The concentrations of NC and V5 peptide labeled with biotin are described in the figure legends. […]

human Bax [2] = target: T2, human Bax; assay: conclusion drawn from the biotin-peptide streptavidin pull-down
Method: The interaction of BIP and Bax was confirmed by experiments using the system of biotin-labeled BIP and streptavidin beads. Biotin-labeled BIP (biotin-VPMLK; SEQ ID NO: 1), but not negative control peptide (biotin-IPMIK; SEQ ID NO: 5) precipitated Bax from the cell lysates when the streptavidin beads were added to the samples.
Endogenous protein: HEK293T (10^7 cells) were lysed in 200 ul of "CHAPS-based buffer" (150 mM NaCl, 10 mM Hepes, pH 7.4, 1.0% CHAPS) containing protease inhibitors (100 times dilution of Protease Inhibitors Cocktail; Sigma) according to the previously reported method (Hsu and Youle, *J. Biol. Chem.* 273:10777–10783, 1998). After pre-cleaning of 600 ul of the sample with 50 ul of Protein G-Sepharose at 4° C. for 1 hour, immunoprecipitations were performed by incubating 200 ul of lysates with 20 ul of Protein G-Sepharose preabsorbed with 2 ug of anti-Bax polyclonal (BD-Pharmingen) or anti-Ku70 monoclonal antibody (BD-Pharmingen) at 4° C. for 2 hours. In some cases, 2 ug of anti-Bax monoclonal antibody (clone 6A7, BD Pharmingen) was used to detect active form of Bax. […]

Bak = target: T3, Bak (human, UniProt Q16611 2-211); assay: streptavidin bead pull-down from HEK293T CHAPS lysates, Western blot of Bak
T3 sequence (looked up): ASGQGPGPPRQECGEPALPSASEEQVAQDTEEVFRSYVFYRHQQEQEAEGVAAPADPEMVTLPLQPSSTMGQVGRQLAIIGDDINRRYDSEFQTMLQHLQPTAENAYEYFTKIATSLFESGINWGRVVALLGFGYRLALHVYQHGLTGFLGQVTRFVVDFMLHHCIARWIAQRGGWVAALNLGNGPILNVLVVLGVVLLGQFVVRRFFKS

T2 sequence (Q07812 whole entry): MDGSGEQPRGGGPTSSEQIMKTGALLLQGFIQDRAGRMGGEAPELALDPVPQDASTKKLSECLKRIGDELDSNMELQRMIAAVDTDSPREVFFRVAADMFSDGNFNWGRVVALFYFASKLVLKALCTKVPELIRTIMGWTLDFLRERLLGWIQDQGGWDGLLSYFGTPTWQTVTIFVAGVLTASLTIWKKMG
T1 sequence (Q07813 whole entry): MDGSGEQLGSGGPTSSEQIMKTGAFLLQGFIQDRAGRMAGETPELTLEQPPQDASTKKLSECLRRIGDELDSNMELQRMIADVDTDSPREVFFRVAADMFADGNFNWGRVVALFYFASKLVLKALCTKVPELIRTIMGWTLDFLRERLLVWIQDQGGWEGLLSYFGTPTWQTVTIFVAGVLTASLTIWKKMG

CSCC[C@H](NC(=O)[C@@H]1CCCN1C(=O)[C@@H](NC(=S)Nc1ccc2c(c1)C(=O)OC21c2ccc(O)cc2Oc2cc(O)ccc21)C(C)C)C(=O)N[C@@H](CC(C)C)C(=O)N[C@@H](CCCCN)C(=O)O [FITC-labeled BIP] ({FITC}-VPMLK-OH; N-terminus and C-terminus assumed)
Binding of FITC peptide to cellular components (endogenous Bax): No significant binding

COC(=O)C[C@H](NC(=O)[C@H](C)NC(=O)[C@@H](NC(=O)OCc1ccccc1)C(C)C)C(=O)CF [z-VAD-fmk] (Cbz-Val-Ala-Asp(OMe)-CH2F)
Suppression of Bax-induced apoptosis in cell culture (HEK293T cells): showed anti-apoptotic activities
Suppression of Caspase activation (Caspase): suppresses STS-induced Caspase activation

IPMIK [mutant of V5 with V and L changed to I, used as negative control peptide, reference compound]
Suppression of Bax-induced apoptosis in cell culture (HEK293T cells): lost its activity to suppress apoptosis; also recorded: did not suppress Bax-mediated cell death
Interaction with Bax (precipitation from cell lysates) (Bax): fails to interact with Bax

B1: biotin-IPMIK (SEQ ID NO: 5) negative control peptide (peptide)
peptide: Biotin-IPMIK
notes: also called biotin-labeled negative control (NC) peptide
binding result (human Bax [1]): no binding (tested: 200 uM)

B2: IPMIK (SEQ ID NO: 5) negative control (NC) peptide (peptide)
peptide: IPMIK
notes: also called negative control peptide; mutant peptide IPMIK
binding result (human Bax [2]): no binding

B3: Biotin-labeled BIP (biotin-VPMLK; SEQ ID NO: 1) (peptide)
peptide: Biotin-VPMLK
notes: also called biotin-labeled V5 peptide (BIP)
binding result (Bak): no binding (tested: 200 uM)
